According to PMC8424644, “Thermodynamic Stability and Speciation of Ga(III) and Zr(IV) Complexes with High-Denticity Hydroxamate Chelators” (Inorganic Chemistry, 2021):
Marks after values point to notes of the source that are not given here.

Legend:
Format in all cases: physicochemical
[1] = Ligand protonation constants, potentiometric titrations
From the text: The metal affinity of a ligand depends on its acid-base properties; therefore, the protonation equilibria of […] and […] were first investigated. The proton-dissociation processes of the ligands were followed by potentiometric titrations in the pH range 2-11. The hydrolytic stability of the ligands was monitored by a second titration of the same sample with NaOH, following back-acidification of the initially titrated sample. […] As was previously reported in the example of α- and β-alanine hydroxamic acids, the amino group may be more acidic than the hydroxamic group, or vice versa. […] However, such a precise analysis is not needed for the determination of the stability of […]-metal complexes and therefore was not performed. […] The potentiometric titrations of ligands and their complexes were carried out using a Titrando 905 (Metrohm) automatic titrator system, equipped with a combined glass electrode (Mettler Toledo, InLab Semi-Micro, with […] Polymer filling) and a 800 Dosino dosing system, equipped with a a 2 mL micro buret. The ionic strength was fixed at I = 0.1 M with NaClO4. The electrode was calibrated daily in terms of hydrogen ion concentration using HClO4 (0.1 M) with CO2-free NaOH solutions (0.1 M).[76] A stream of high-purity argon, presaturated with water vapor, was passed over the surface of the solution cell, the cell was filled with 50 mL of the studied solution, and the system was thermostated at 25.0 ± 0.2 °C. At least three titrations were performed for each system, with a starting concentration of the ligand of 1 mM and a 1:1 metal to ligand molar ratio with a 10% excess of the ligand in the pH range 2-11. The purity and exact concentration of the ligand solutions were determined using the Gran method.[77] Special care was taken to ensure that complete equilibration was attained. […] The potentiometric data were refined with the […][78] and […][79] programs, which use nonlinear least-squares methods.

[2] = Fe(III) complex stability, pH-dependent UV–vis titrations
From the text: To evaluate the thermodynamic stability of Ga(III) and Zr(IV) complexes of the investigated ligands, the binding properties and speciation of Fe(III) complexes have first been determined (all the details are given in the Supporting Information). There are several reasons for this protocol. First, (i) the electron configuration of Ga(III) (d^10) and Zr(IV) (d^0) hinders the attainment of spectral information for most of the complexes. Furthermore, (ii) both metal ions are highly acidic and they are readily hydrolyzed over almost the entire pH range. In addition, (iii) the high charge to size ratio of the Zr(IV) ion implies the formation of complexes with an exceptional thermodynamic stability (already at very low pH); as a consequence, the stability constants cannot be directly determined using standard potentiometric titrations. Thus, the thermodynamic stability constants of the Fe(III)-H3L1 and Fe(III)-H4L2 systems were first determined (using a combination of potentiometric and pH-dependent UV–vis titrations), followed by Fe(III)–Ga(III) and Fe(III)–Zr(IV) metal–metal competition experiments. […]

[3] = pFe calculation (ligand sequestering ability); conditions: pH=7.4, cL=10 μM, metal 1 μM
From the text: Despite a large variety of PET chelators synthesized and tested in order to provide strong coordination of Ga(III) and Zr(IV) in vivo, until now it is has been hard to avoid the release of these metal ions in the body. Here we report two new Ga(III) and Zr(IV) hydroxamate chelators, designed to achieve an efficient sequestering of these metal ions but also to understand how the cyclization and the introduction of an additional hydroxamate group influences the stability of Zr(IV) complexes. Therefore, it is important to evaluate and compare the Ga(III)- and Zr(IV)-sequestering abilities of […] and […] with those of other chelators. […] page 15: 100 100 [ZrL4]+ [ZrL3]+ [ZrL4H ] -1 80 [ZrL3H ] 80 2+ -1 [ZrHL4] […] Experimental section. Ligands' sequestering ability Table S3. pFe values with various synthetic and biological chelators a Ligand pFe Chelating groups and ligands geometry […] 24.3 3 hydroxamate groups in a cyclic arrangement […] 23.3 4 hydroxamate groups in a linear arrangement […] 26.9 3 hydroxamate groups in a cyclic arrangement […] 23.61 3 hydroxamate groups in a linear arrangement […] DFOE 27.73 3 hydroxamate groups in a cyclic arrangement […] protonation and stability constants given in original publications; the hydrolysis constants of Fe(III) ions were taken from the literature14 and are given in the experimental section 15 (also on this page, place not known: […]

[4] = potentiometric titrations, 25 °C, I = 0.1 M NaClO4

| Structure (SMILES) | protonation constant of the amino group (log K) ([1]; not detectable in the experimental pH range 2–11, assumed on the basis of DFOB) | log K LH2 (ligand protonation) [1, 4] | log K LH3 (ligand protonation) [1, 4] | log K LH4 (ligand protonation) [1, 4] | log K LH (ligand protonation) [1, 4] | log β LH2 (ligand protonation) [1, 4] | log β LH3 (ligand protonation) [1, 4] | log β LH4 (ligand protonation) [1, 4] | log β LH (ligand protonation) [1, 4] | log β [FeHL] ([2]; pH-dependent UV–vis titrations, 25 °C, I = 0.1 M NaClO4) | pFe [3] | pK of [FeHL] ([FeHL1]+ to [FeL1]) ([2]; from UV–vis log β values (supplement)) |
| --- | --- | --- | --- | --- | --- | --- | --- | --- | --- | --- | --- | --- |
| N[C@H]1CCCCNC(=O)CCCN(O)C(=O)CCCNC(=O)CCCN(O)C(=O)CCCNC(=O)CCCN(O)C(=O)CCCNC(=O)CCCN(O)C(=O)CCCNC1=O [H4L2, (S)-43-Amino-6,16,26,36-tetrahydroxy-1,6,11,16,21,26,31,36,41-nonaazacycloheptatetracontane-2,7,12,17,22,27,32,37,42-nonaone] | > 11 | 9.59 ^d | 8.94 ^d | 8.18 ^d | 10.06 ^d | 19.65(1) ^d | 28.59(1) ^d | 36.77(1) ^d | 10.06(1) ^d | 36.96(7) ^e | 23.3 | – |
| O=C1CCCN(O)C(=O)CCCNC(=O)CCCN(O)C(=O)CCCNC(=O)CCCN(O)C(=O)CCCN1 [H3L1, 1,11,21-Trihydroxy-1,6,11,16,21,26-hexaazacyclotriacontane-2,7,12,17,22,27-hexaone] | – | 9.24 ^d | 8.31 ^d | – | 9.89 ^d | 19.13(1) ^d | 27.44(1) ^d | – | 9.89(1) ^d | – | 24.3 | 3.21 |
